According to ChEMBL document CHEMBL1909046, “DrugMatrix in vitro pharmacology data”:

How the values were obtained:
[1] = biological target: T1, Receptor-type tyrosine-protein phosphatase C (Homo sapiens, UniProt P08575); parameters: species or system Escherichia coli;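 note: inhibition of CD45 enzyme activity measured using DiFMUP as substrate; in other assays of this panel Not Active means under 50% inhibition at 10 µM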
T1 sequence (P08575 whole entry): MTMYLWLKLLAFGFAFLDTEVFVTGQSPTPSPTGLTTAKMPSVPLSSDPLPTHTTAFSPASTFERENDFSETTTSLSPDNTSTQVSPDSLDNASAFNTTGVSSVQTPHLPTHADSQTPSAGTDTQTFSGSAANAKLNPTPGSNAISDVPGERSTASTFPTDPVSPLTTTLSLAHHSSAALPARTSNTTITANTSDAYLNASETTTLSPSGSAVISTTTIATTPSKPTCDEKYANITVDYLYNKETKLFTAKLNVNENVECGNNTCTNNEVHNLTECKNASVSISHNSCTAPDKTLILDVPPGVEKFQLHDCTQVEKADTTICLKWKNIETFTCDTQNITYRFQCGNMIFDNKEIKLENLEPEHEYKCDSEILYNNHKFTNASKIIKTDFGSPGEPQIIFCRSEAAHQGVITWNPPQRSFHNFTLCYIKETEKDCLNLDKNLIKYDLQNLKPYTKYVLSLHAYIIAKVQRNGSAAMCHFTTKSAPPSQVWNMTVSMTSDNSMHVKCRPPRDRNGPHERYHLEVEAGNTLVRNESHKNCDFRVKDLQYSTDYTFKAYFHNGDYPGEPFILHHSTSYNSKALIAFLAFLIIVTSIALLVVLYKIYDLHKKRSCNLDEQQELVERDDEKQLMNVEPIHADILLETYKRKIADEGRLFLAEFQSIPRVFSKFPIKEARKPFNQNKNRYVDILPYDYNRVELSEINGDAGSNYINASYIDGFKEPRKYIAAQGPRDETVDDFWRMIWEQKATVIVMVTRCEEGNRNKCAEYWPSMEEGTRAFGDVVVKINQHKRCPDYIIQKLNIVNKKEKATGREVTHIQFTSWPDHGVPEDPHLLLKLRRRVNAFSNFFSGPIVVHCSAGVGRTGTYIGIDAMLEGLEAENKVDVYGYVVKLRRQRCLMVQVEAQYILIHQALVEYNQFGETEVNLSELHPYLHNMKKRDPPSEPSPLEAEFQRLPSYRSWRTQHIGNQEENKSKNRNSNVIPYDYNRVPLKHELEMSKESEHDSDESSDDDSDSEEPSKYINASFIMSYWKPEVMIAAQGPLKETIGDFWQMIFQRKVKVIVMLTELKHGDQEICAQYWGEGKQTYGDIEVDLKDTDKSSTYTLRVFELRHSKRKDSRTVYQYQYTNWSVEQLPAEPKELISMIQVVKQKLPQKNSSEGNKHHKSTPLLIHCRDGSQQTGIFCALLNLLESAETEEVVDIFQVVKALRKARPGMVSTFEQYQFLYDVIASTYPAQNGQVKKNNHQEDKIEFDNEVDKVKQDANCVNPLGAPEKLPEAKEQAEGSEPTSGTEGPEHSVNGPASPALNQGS

[2] = biological target: T2, Angiotensin-converting enzyme (Oryctolagus cuniculus, UniProt P12822); assay type: tissue-based, Lung;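 note: enzymatic inhibition of angiotensin-converting enzyme measured with FAPGG as the substrate; in other assays of this panel Not Active means under 50% inhibition at 10 µM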
T2 sequence (P12822 whole entry): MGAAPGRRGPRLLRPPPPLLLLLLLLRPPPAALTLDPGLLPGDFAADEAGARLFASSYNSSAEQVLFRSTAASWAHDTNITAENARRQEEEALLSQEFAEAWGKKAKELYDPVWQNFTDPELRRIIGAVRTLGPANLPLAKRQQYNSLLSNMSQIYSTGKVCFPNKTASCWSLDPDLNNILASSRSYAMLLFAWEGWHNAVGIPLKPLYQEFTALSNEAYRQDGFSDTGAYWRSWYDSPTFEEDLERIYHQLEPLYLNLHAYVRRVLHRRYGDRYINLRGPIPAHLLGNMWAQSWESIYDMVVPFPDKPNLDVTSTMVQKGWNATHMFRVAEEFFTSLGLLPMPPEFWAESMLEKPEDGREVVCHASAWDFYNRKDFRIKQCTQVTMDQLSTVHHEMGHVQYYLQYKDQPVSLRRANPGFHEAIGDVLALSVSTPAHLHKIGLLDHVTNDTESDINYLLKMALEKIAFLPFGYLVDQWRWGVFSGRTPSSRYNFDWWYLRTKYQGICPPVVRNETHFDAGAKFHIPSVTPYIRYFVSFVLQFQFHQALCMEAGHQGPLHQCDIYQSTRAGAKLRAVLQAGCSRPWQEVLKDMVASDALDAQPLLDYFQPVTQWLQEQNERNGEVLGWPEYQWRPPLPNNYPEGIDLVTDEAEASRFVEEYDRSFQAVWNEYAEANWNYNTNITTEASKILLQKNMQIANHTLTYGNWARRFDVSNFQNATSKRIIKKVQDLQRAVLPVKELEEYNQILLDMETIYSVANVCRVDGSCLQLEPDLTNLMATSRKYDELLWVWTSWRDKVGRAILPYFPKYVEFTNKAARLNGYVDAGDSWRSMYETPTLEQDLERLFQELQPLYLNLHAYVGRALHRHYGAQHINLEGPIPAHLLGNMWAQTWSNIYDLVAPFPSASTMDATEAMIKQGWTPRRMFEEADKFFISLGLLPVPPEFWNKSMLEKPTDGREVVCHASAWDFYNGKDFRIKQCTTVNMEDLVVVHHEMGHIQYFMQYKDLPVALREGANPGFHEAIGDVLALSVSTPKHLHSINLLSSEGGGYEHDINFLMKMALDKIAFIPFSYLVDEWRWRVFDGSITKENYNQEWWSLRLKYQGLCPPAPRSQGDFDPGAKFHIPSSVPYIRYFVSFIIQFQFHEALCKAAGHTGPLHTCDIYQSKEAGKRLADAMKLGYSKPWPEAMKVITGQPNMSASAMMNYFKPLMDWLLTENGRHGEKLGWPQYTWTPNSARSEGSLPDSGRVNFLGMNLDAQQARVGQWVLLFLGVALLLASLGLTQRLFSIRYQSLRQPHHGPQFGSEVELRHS

[3] = biological target: Protein phosphatase 3 catalytic subunit alpha (Homo sapiens, UniProt Q08209); parameters: species or system Escherichia coli;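 note: inhibition of calcineurin (PP2B) enzyme activity, measured with DiFMUP as the substrate; in other assays of this panel Not Active means under 50% inhibition at 10 µM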
[4] = DRUGMATRIX: Calcium Channel Type L, Benzothiazepine radioligand binding (ligand: [3H] Diltiazem); assay type: cell membranes, Rattus norvegicus, Wistar, Brain, Membrane; conditions: Not Active = under 50% inhibition at 10 µM
[5] = biological target: Aldo-keto reductase family 1 member B1 (Rattus norvegicus, UniProt P07943); assay: biochemical; assay type: tissue-based, Lens of camera-type eye;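 note: inhibition of aldose reductase enzyme activity, measured with DL-glyceraldehyde as the substrate; in other assays of this panel Not Active means under 50% inhibition at 10 µM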
[6] = DRUGMATRIX: Purinergic P2X radioligand binding (ligand: [3H] alpha, beta-Methylene-ATP); assay type: cell membranes, Oryctolagus cuniculus, New Zealand albino, Urinary bladder, Membrane; conditions: Not Active = under 50% inhibition at 10 µM
Melanocortin receptor 4 = Melanocortin receptor 4 (Homo sapiens, UniProt P32245); assay type: cell membranes, Membrane; conditions: hek293; note: in other assays of this panel Not Active means under 50% inhibition at 10 µM
Chain of Melanocortin receptor 4 (P32245 whole entry): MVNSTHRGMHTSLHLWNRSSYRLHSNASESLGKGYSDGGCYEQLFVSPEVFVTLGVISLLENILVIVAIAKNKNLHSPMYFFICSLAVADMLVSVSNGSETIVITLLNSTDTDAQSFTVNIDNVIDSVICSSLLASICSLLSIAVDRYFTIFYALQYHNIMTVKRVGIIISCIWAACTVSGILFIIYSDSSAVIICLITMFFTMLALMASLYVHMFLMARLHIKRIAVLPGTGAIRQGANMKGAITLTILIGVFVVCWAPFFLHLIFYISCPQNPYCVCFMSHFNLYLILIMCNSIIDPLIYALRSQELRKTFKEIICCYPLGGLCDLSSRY

| SMILES | IC50 [1] | IC50 [2] | IC50 [3] | IC50 [4] | Ki [4] | IC50 [5] | IC50 [6] | Ki [6] | IC50 (Melanocortin receptor 4) | IC50 ([4]; read-out: IC50) | Ki ([4]; read-out: Ki) |
| --- | --- | --- | --- | --- | --- | --- | --- | --- | --- | --- | --- |
| CCc1c2c(nc3ccc(OC(=O)N4CCC(N5CCCCC5)CC4)cc13)-c1cc3c(c(=O)n1C2)COC(=O)[C@]3(O)CC [IRINOTECAN] | Not Active | Not Active | Not Active | Not Active | Not Active | Not Active | Not Active | Not Active | Not Active |  |  |
| CC(C(=O)O)c1cccc(C(=O)c2ccccc2)c1 (configuration not stated) [KETOPROFEN] | Not Active | Not Active | Not Active | Not Active | Not Active | Not Active | Not Active | Not Active | Not Active |  |  |
| Nc1ccn([C@@H]2CS[C@H](CO)O2)c(=O)n1 [LAMIVUDINE] | Not Active | Not Active | Not Active | Not Active | Not Active | Not Active | Not Active | Not Active | Not Active |  |  |
| O=S(=O)([O-])CCS.[Na+] [MESNA] | Not Active | Not Active | Not Active | Not Active | Not Active | Not Active | Not Active | Not Active | Not Active |  |  |
| C#C[C@]1(O)CC[C@H]2[C@@H]3CCc4cc(OC)ccc4[C@H]3CC[C@@]21C [MESTRANOL] | Not Active | Not Active | Not Active | Not Active | Not Active | Not Active | Not Active | Not Active | Not Active |  |  |
| CC(=O)Nc1cccc(O)c1 [METACETAMOL] | Not Active | Not Active | Not Active | Not Active | Not Active | Not Active | Not Active | Not Active | Not Active |  |  |
| Cc1ncc([N+](=O)[O-])n1CCO [METRONIDAZOLE] | Not Active | Not Active | Not Active | Not Active | Not Active | Not Active | Not Active | Not Active | Not Active |  |  |
| CC(C)(C(=O)c1cccnc1)c1cccnc1 [METYRAPONE] | Not Active | Not Active | Not Active | Not Active | Not Active | Not Active | Not Active | Not Active | Not Active |  |  |
| Oc1ccc(OCc2ccccc2)cc1 [MONOBENZONE] | Not Active | Not Active | Not Active | Not Active | Not Active | Not Active | Not Active | Not Active | Not Active |  |  |
| CC(C)(Oc1ccc(C2CCCc3ccccc32)cc1)C(=O)O (configuration not stated) [NAFENOPIN] | Not Active | Not Active | Not Active | Not Active | Not Active | Not Active | Not Active | Not Active | Not Active |  |  |
| COc1ccc2cc([C@H](C)C(=O)O)ccc2c1 [NAPROXEN] | Not Active | Not Active | Not Active | Not Active | Not Active | Not Active | Not Active | Not Active | Not Active |  |  |
| CC(C)[C@H]1CC[C@H](C(=O)N[C@H](Cc2ccccc2)C(=O)O)CC1 [NATEGLINIDE] | Not Active | Not Active | Not Active | Not Active | Not Active | Not Active | Not Active | Not Active | Not Active |  |  |
| CCN[C@@H]1C[C@H](N)[C@@H](O[C@H]2OC(CN)=CC[C@H]2N)[C@H](O)[C@H]1O[C@H]1OC[C@](C)(O)[C@H](NC)[C@H]1O [NETILMICIN] | Not Active | Not Active | Not Active | Not Active | Not Active | Not Active | Not Active | Not Active | Not Active |  |  |
| COC(=O)C1=C(C)NC(C)=C(C(=O)OCC(C)C)C1c1ccccc1[N+](=O)[O-] (configuration not stated) [NISOLDIPINE] | Not Active | Not Active | Not Active |  |  | Not Active | Not Active | Not Active | Not Active | 2.48 nM | 2.21 nM |
| CCOC(=O)C1=C(C)NC(C)=C(C(=O)OC)C1c1cccc([N+](=O)[O-])c1 (configuration not stated) [NITRENDIPINE] | Not Active | Not Active | Not Active |  |  | Not Active | Not Active | Not Active | Not Active | 1.56 nM | 1.39 nM |
| C#C[C@]1(OC(C)=O)CC[C@H]2[C@@H]3CCC4=CC(=O)CC[C@@H]4[C@H]3CC[C@@]21C [NORETHINDRONE ACETATE] | Not Active | Not Active | Not Active | Not Active | Not Active | Not Active | Not Active | Not Active | Not Active |  |  |
| COc1ccc2[nH]c([S+]([O-])Cc3ncc(C)c(OC)c3C)nc2c1 (configuration not stated) [OMEPRAZOLE] | Not Active | Not Active | Not Active | Not Active | Not Active | Not Active | Not Active | Not Active | Not Active |  |  |
| Cc1nccn1CC1CCc2c(c3ccccc3n2C)C1=O (configuration not stated) [ONDANSETRON] | Not Active | Not Active | Not Active | Not Active | Not Active | Not Active | Not Active | Not Active | Not Active |  |  |
